Source: US9695155B2, “Herbicidal substituted pyrimidinyloxy benzene compounds” (E. I. DU PONT DE NEMOURS AND COMPANY, priority 2013, dated 2017)

Key:
pigweed [1] = test: Test A preemergence; type: in vivo, Amaranthus retroflexus; settings: for Plant response rating, Pigweed: 125 g ai/ha, 0 to 100 scale where 0 is no effect and 100 is complete control; for Pigweed plant response rating: 500 g ai/ha, 0 to 100 scale, 0 no effect, 100 complete control, approx. 10 days
In short: (§1)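 Compounds in non-phytotoxic solvent with surfactant applied as soil spray preemergence, or postemergence to plants 2-10 cm at one- to two-leaf stage, in loam/sand. After approximately 10 days in greenhouse, injury rated visually versus untreated controls, 0 (no effect) to 100 (complete control).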

barnyardgrass [2] = test: Test A postemergence; type: in vivo, Echinochloa crus-galli
In short: as §1

pigweed [3] = test: Test A postemergence; type: in vivo, Amaranthus retroflexus; settings: 0 to 100 scale where 0 is no effect and 100 is complete control
In short: as §1

rice = test: Test B flooded paddy test; type: in vivo, Oryza sativa; settings: Flood, 250 g ai/ha; 0 to 100 scale where 0 is no effect and 100 is complete control
In short: (§2)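 Flooded to 3 cm at the 2-leaf stage, pots received compound through the paddy water and were kept at that depth under greenhouse conditions. After 13–15 days, effect was rated by eye relative to controls, 0 = none and 100 = complete control.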

barnyardgrass [4] = test: Test B flooded paddy test; type: in vivo, Echinochloa crus-galli; settings: Flood, 250 g ai/ha; 0 to 100 scale where 0 is no effect and 100 is complete control
In short: as §2

wheat, winter = test: Test C preemergence; type: in vivo, Triticum aestivum; settings: for Wheat plant response rating: preemergence; for Plant response rating, Wheat: Preemergence, 31 g ai/ha, scale 0 to 100, 0 no effect, 100 complete control
In short: (§3)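 Whole-plant greenhouse test with surfactant-containing solvent formulation, applied preemergence to sown loam–sand pots or postemergence to 2–18 cm plants. Scored by eye 13 to 15 days on, 0–100 scale.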

morningglory = test: Test C preemergence; type: in vivo, Ipomoea coccinea; settings: for Morningglory plant response rating: preemergence; for Plant response rating, Morningglory: Preemergence, 31 g ai/ha, scale 0 to 100, 0 no effect, 100 complete control
In short: as §3

soybean = test: Test C preemergence; type: in vivo, Glycine max; settings: for Soybean plant response rating: preemergence; for Plant response rating, Soybean: Preemergence, 31 g ai/ha, scale 0 to 100, 0 no effect, 100 complete control
In short: as §3

barnyardgrass [5] = test: Test C preemergence; type: in vivo, Echinochloa crus-galli; settings: for Barnyardgrass plant response rating: preemergence; for Plant response rating, Barnyardgrass: Preemergence, 31 g ai/ha, scale 0 to 100, 0 no effect, 100 complete control
In short: as §3

waterhemp = test: Test C preemergence; type: in vivo, Amaranthus rudis; settings: for Waterhemp plant response rating: preemergence; for Plant response rating, Waterhemp: Preemergence, 31 g ai/ha, scale 0 to 100, 0 no effect, 100 complete control
In short: as §3

blackgrass = test: Test C postemergence; type: in vivo, Alopecurus myosuroides; settings: for Blackgrass plant response rating: 16 g ai/ha, visual rating; for Blackgrass plant response rating / Plant response rating (0 to 100), Blackgrass: postemergence; for Blackgrass plant response rating / Plant response rating, Blackgrass: scale 0 to 100 (0 no effect, 100 complete control); for Plant response rating (0 to 100), Blackgrass: 125 g ai/ha; for Plant response rating, Blackgrass: Postemergence
In short: as §3

large (Lg) crabgrass = test: Test C postemergence; type: in vivo, Digitaria sanguinalis; settings: for Crabgrass, Large plant response rating: 16 g ai/ha, visual rating; for Crabgrass, Large plant response rating / Plant response rating (0 to 100), Crabgrass, Large: postemergence; for Crabgrass, Large plant response rating / Plant response rating, Crabgrass, Large: scale 0 to 100 (0 no effect, 100 complete control); for Plant response rating (0 to 100), Crabgrass, Large: 125 g ai/ha; for Plant response rating, Crabgrass, Large: Postemergence
In short: as §3

ragweed = test: Test C postemergence; type: in vivo, Ambrosia elatior; settings: for Plant response rating (0 to 100), Ragweed: 125 g ai/ha, postemergence; for Plant response rating, Ragweed: Postemergence, scale 0 to 100 (0 no effect, 100 complete control)
In short: as §3

[6] = 125 g ai/ha, 0 to 100 scale where 0 is no effect and 100 is complete control
[7] = 500 g ai/ha, 0 to 100 scale where 0 is no effect and 100 is complete control
[8] = 16 g ai/ha, scale 0 to 100 (0 no effect, 100 complete control)
[9] = 62 g ai/ha, scale 0 (no effect) to 100 (complete control)
[10] = 125 g ai/ha, scale 0 (no effect) to 100 (complete control)

Structure (SMILES) | Plant response rating, Pigweed (pigweed [1]) | Pigweed plant response rating (pigweed [1]) | Plant response rating, Barnyardgrass (barnyardgrass [2]; [6]) | Plant response rating, Pigweed (pigweed [3]; 125 g ai/ha) | Plant response rating, Pigweed (pigweed [3]; 500 g ai/ha) | Plant response rating, Rice (rice) | Plant response rating, Barnyardgrass (barnyardgrass [4]) | Wheat plant response rating (wheat, winter; [8]) | Wheat plant response rating (wheat, winter; [9]) | Wheat plant response rating (wheat, winter; [10]) | Plant response rating, Wheat (wheat, winter) | Morningglory plant response rating (morningglory; [8]) | Morningglory plant response rating (morningglory; [9]) | Morningglory plant response rating (morningglory; [10]) | Plant response rating, Morningglory (morningglory) | Soybean plant response rating (soybean; [8]) | Soybean plant response rating (soybean; [9]) | Soybean plant response rating (soybean; [10]) | Plant response rating, Soybean (soybean) | Barnyardgrass plant response rating (barnyardgrass [5]; [8]) | further results
CCOc1cnn(-c2c(C#N)cccc2Oc2ncc(F)cn2)c1 [Compound 89] | 90 | 100 | 40 | 90 | 100 | 20 | 10 | 0 | 0 | 5 | 0 | 45 | 95 | 98 | 35 | 30 | 90 | 98 | 45 | 5 | Plant response rating, Barnyardgrass (barnyardgrass [2]; [7]): 90; Barnyardgrass plant response rating (barnyardgrass [5]; [9]): 70; Barnyardgrass plant response rating (barnyardgrass [5]; [10]): 100; Plant response rating, Barnyardgrass (barnyardgrass [5]): 35; Waterhemp plant response rating (waterhemp; [8]): 80; Waterhemp plant response rating (waterhemp; [9]): 100; Waterhemp plant response rating (waterhemp; [10]): 100; Plant response rating, Waterhemp (waterhemp): 100; Blackgrass plant response rating (blackgrass; 13 to 15 days): 0; Plant response rating (0 to 100), Blackgrass (blackgrass): 5; Plant response rating, Blackgrass (blackgrass; 31 g ai/ha, 13 to 15 days): 0; Plant response rating, Blackgrass (blackgrass; 62 g ai/ha): 5; Crabgrass, Large plant response rating (large (Lg) crabgrass; 13 to 15 days): 5; Plant response rating (0 to 100), Crabgrass, Large (large (Lg) crabgrass): 5; Plant response rating, Crabgrass, Large (large (Lg) crabgrass; 31 g ai/ha, 13 to 15 days): 5; Plant response rating, Crabgrass, Large (large (Lg) crabgrass; 62 g ai/ha): 5; Plant response rating (0 to 100), Ragweed (ragweed): 70; Plant response rating, Ragweed (ragweed; 31 g ai/ha, 13 to 15 days): 40; Plant response rating, Ragweed (ragweed; 62 g ai/ha): 60
FCc1cccc(Oc2ncc(Cl)cn2)c1-n1cc(Br)cn1 [Compound 83] | 100 | 100 | 90 | 100 | 100 | 0 | 0 | 0 | 0 | 0 | 0 | 0 | 0 | 10 | 0 | 5 | 60 | 75 | 10 | 5 | Plant response rating, Barnyardgrass (barnyardgrass [2]; 500 g ai/ha, 0 to 100 scale, 0 no effect, 100 complete control): 100; Barnyardgrass plant response rating (barnyardgrass [5]; [9]): 45; Barnyardgrass plant response rating (barnyardgrass [5]; [10]): 90; Plant response rating, Barnyardgrass (barnyardgrass [5]): 5; Waterhemp plant response rating (waterhemp; [8]): 75; Waterhemp plant response rating (waterhemp; [9]): 100; Waterhemp plant response rating (waterhemp; [10]): 100; Plant response rating, Waterhemp (waterhemp): 100; Blackgrass plant response rating (blackgrass; 13 to 15 days): 0; Plant response rating (0 to 100), Blackgrass (blackgrass): 20; Plant response rating, Blackgrass (blackgrass; 31 g ai/ha, 13 to 15 days): 5; Plant response rating, Blackgrass (blackgrass; 62 g ai/ha): 5; Crabgrass, Large plant response rating (large (Lg) crabgrass; 13 to 15 days): 5; Plant response rating (0 to 100), Crabgrass, Large (large (Lg) crabgrass): 10; Plant response rating, Crabgrass, Large (large (Lg) crabgrass; 31 g ai/ha, 13 to 15 days): 5; Plant response rating, Crabgrass, Large (large (Lg) crabgrass; 62 g ai/ha): 10; Plant response rating (0 to 100), Ragweed (ragweed): 70; Plant response rating, Ragweed (ragweed; 31 g ai/ha, 13 to 15 days): 40; Plant response rating, Ragweed (ragweed; 62 g ai/ha): 60
N#Cc1cccc(Oc2ncc(F)cn2)c1-n1cc(I)cn1 [Compound 86] | 100 | 100 | 90 | 100 | 100 | 0 | 0 | 0 | 0 | 35 | 0 | 10 | 60 | 100 | 25 | 35 | 75 | 85 | 45 | 5 | Plant response rating, Barnyardgrass (barnyardgrass [2]; [7]): 100; Barnyardgrass plant response rating (barnyardgrass [5]; [9]): 40; Barnyardgrass plant response rating (barnyardgrass [5]; [10]): 95; Plant response rating, Barnyardgrass (barnyardgrass [5]): 10; Waterhemp plant response rating (waterhemp; [8]): 100; Waterhemp plant response rating (waterhemp; [9]): 100; Waterhemp plant response rating (waterhemp; [10]): 100; Plant response rating, Waterhemp (waterhemp): 100; Blackgrass plant response rating (blackgrass; 13 to 15 days): 5; Plant response rating (0 to 100), Blackgrass (blackgrass): 10; Plant response rating, Blackgrass (blackgrass; 31 g ai/ha, 13 to 15 days): 5; Plant response rating, Blackgrass (blackgrass; 62 g ai/ha): 5; Crabgrass, Large plant response rating (large (Lg) crabgrass; 13 to 15 days): 5; Plant response rating (0 to 100), Crabgrass, Large (large (Lg) crabgrass): 5; Plant response rating, Crabgrass, Large (large (Lg) crabgrass; 31 g ai/ha, 13 to 15 days): 5; Plant response rating, Crabgrass, Large (large (Lg) crabgrass; 62 g ai/ha): 5; Plant response rating (0 to 100), Ragweed (ragweed): 85; Plant response rating, Ragweed (ragweed; 31 g ai/ha, 13 to 15 days): 50; Plant response rating, Ragweed (ragweed; 62 g ai/ha): 55
